One experiment has as its system HEK293 cells. The settings on record: cited from earlier work.
Another experiment concerns HL-60 cells. As to the kind of experiment: Static cell adhesion to mouse E-selectin-Fc (mCD62E) coated surfaces. It counts as cell-based, human. The settings on record: HL-60 pre-incubated 50 μM, 48 h; adhesion 60 min. As to the method: Effect of ManNAc analogues on cell adhesion to E-selectin and L-selectin coated surfaces: This assay was performed in 96-well polystyrene plates under sterile conditions. The plates were prepared freshly on the day of adhesion experiments. Wells were first coated with protein-G (200 ng in 50 μL PBS per well) for 1.0 h at room temperature (RT) followed by PBS washes (2×0.1 mL). Then either recombinant mouse E-selectin-Fc chimera or L-selectin-Fc chimera (20 ng in 50 μL PBS per well) was added to the wells and plate was left undisturbed for 1.0 h at RT. Wells were aspirated and washed with PBS (2×0.1 mL) followed by blocking with 1.0% (w/v) BSA in 50 μL PBS per well for 1.0 h at RT. After blocking, the wells were washed with PBS (3×0.1 mL).
HL-60 cells (3.0×10^5 cells per mL; 2.0 mL in six well plates) were incubated with 50 μM ManNAc analogues, harvested at 48 h, washed once with serum free RPMI medium (0.5 mL), and resuspended in serum free RPMI 1640 media containing 1.5 mM CaCl2) (4.0×10^5 cells/mL in 1.0 mL). The single cell suspension was added to each well (2.0×10^4 cells in 50 μL media per well) and allowed to adhere for 1.0 h at 37° C. in a CO2 incubator. […] Images were captured at 10× magnification using Olympus IX53 fluorescence microscope. […] The images were analyzed manually and the total number of adherent cells per well for each condition were plotted.

Molecules are shown by their SMILES.

`CC(=O)OC[C@H]1O[C@H](OC(C)=O)[C@@H](NC(=O)C2CC2)[C@@H](OC(C)=O)[C@@H]1OC(C)=O` [Compound 1a, 1,3,4,6-tetra-O-acetyl-2-cyclopropanoylamino-2-deoxy-α-D-mannopyranose]: in the experiment with HEK293 cells, the “increase of total sialic acid levels” value is recorded as “two folds” and the “share of sialic acid being modified N-cyclopropanoyl-D-neuraminic acid” value is “more than 50%”.
For `CC(=O)OC[C@H]1OC(OC(C)=O)[C@@H](NC(=O)C2CCC2)[C@@H](OC(C)=O)[C@@H]1OC(C)=O` (stereo partly drawn) [Compound 1b, (3S,4R,5S,6R)-6-(acetoxymethyl)-3-(cyclobutanecarboxamido)tetrahydro-2H-pyran-2,4,5-triyl triacetate], in the experiment on HL-60 cells, the “increase in the numbers of adhered cells on mCD62E coated surface” value is reported as “about 40%”.

These data come from patent publication US20240002424A1, “HEXOSAMINE COMPOUNDS AND METHODS THEREOF” (National Institute of Immunology, priority 2021, published 2024).
